In patent US6602525B1 (The Procter & Gamble Company, priority 2001, dated 2003):
Several values for one entry are separate records, joined by “and”; a condition that tells them apart may be missing. Equal entries are not always repeated.

Key:
Format in all cases: cell-based
Pseudomonas aeruginosa [1] = assay: Checkerboard synergy test, nitrofurantoin and uva ursi; conditions: P. aeruginosa isolates 1-10
Excerpt: (§1) The checkerboard (or chessboard) method is used to assess the antimicrobial combination in vitro against the following selection of Gram-positive and Gram-negative pathogens including: Escherichia coli, Klebsiella pneumoniae, Proteus mirabilis, Serratia marcescens, Staphylococcus saprophyticus, Pseudomonas aeruginosa, and Enterococcus faecalis. […] Furthermore, the combination of nitrofurantoin and uva ursi is synergistic against four of the seven species tested, in particular E. coli, S. marcescens, P. mirabilis, and P. aeruginosa. […] [table] […] Following testing, the FIC index was calculated for each isolate panel to determine whether synergy, additivity, or antagonism occurred. […] For additivity, the FIC index is 1. For antagonism, the FIC index is 2.

Enterococcus faecalis [2] = assay: as above; conditions: E. faecalis isolates 21-30
Excerpt: as §1

Proteus mirabilis = assay: as above; conditions: nitrofurantoin alone, P. mirabilis isolates 41-50
Excerpt: as §1

[3] = system: Staphylococcus saprophyticus; assay: as above; conditions: nitrofurantoin alone, S. saprophyticus isolates 61-70
Excerpt: as §1

Pseudomonas aeruginosa [4] = assay: Pre-test MIC, NCCLS microbroth dilution
Procedure: (§2) Methods for Dilution Antimicrobial Susceptibility Tests for Bacteria That Grow Aerobically; Approved Standard (Fifth Edition) (2000). These standards are as follows: [table] Nitrofurantoin was added to cation-adjusted Mueller-Hinton Broth (hereinafter “CAMHB”) and dissolved. […] The uva ursi extract was serially diluted in water. For each test concentration, the final dilution was performed in CAMHB providing dilutions of 1:20 to 1:2048.

Serratia marcescens = assay: Pre-test MIC, NCCLS microbroth dilution; conditions: nitrofurantoin alone, S. marcescens, one value per isolate (Isolate ID 11-20)
Procedure: as §2

Enterococcus faecalis [5] = assay: Pre-test MIC, NCCLS microbroth dilution; conditions: nitrofurantoin alone, E. faecalis, one value per isolate (Isolate ID 21-30)
Procedure: as §2

[6] = system: Staphylococcus saprophyticus; assay: Pre-test MIC, NCCLS microbroth dilution; conditions: nitrofurantoin alone, S. saprophyticus, one value per isolate (Isolate ID 61-70)
Procedure: as §2

[7] = checkerboard, nitrofurantoin alone

MIC (Pseudomonas aeruginosa [1]; Pseudomonas aeruginosa, read-out: MIC Nitrofurantoin, checkerboard, nitrofurantoin alone): > 512 µg/mL
MIC Nitrofurantoin (Pseudomonas aeruginosa [1]; [7]): >512 µg/mL and 512 µg/mL
MIC (Enterococcus faecalis [2]; Enterococcus faecalis, read-out: MIC Nitrofurantoin, checkerboard, nitrofurantoin alone): 16 µg/mL
MIC Nitrofurantoin (Enterococcus faecalis [2]; [7]): 8 µg/mL
MIC Nitrofurantoin (Proteus mirabilis): 128 µg/mL
MIC Nitrofurantoin [3]: 8 µg/mL
MIC (Pseudomonas aeruginosa [4]; Pseudomonas aeruginosa, read-out: Nitrofurantoin MIC): > 512 µg/mL
Nitrofurantoin MIC (Pseudomonas aeruginosa [4]; pre-test, nitrofurantoin alone, P. aeruginosa, one value per isolate (Isolate ID 1-10)): >512 µg/mL
MIC Nitrofurantoin (Serratia marcescens): 64 to 512 µg/mL
MIC Nitrofurantoin (Enterococcus faecalis [5]): 8 to 64 µg/mL
MIC Nitrofurantoin [6]: 8 to 32 µg/mL
Structure (SMILES): O=C1CN(/N=C/c2ccc([N+](=O)[O-])o2)C(=O)N1 [Nitrofurantoin, N-(5-nitro-2-furfurylidene)-1-aminohydantoin]
